Data from patent US20260176249A1, “PROTEIN KINASE INHIBITOR, PREPARATION METHOD THEREFOR, AND APPLICATION THEREOF” (SHANDONG LUYE PHARMACEUTICAL CO., LTD., priority 2021, published 2026).
Like-named read-outs stand apart in the source and are kept apart here.

Experiments:
[1] = test system: Caco-2 cells; assay: Permeability and efflux transporter substrate evaluation in Caco-2 cells; format: in vitro ADME; set-up: Papp A→B at 120 min / Papp B→A at 120 min / efflux ratio at 120 min / Papp at 120 min: dose or concentration left out as unconfirmed; conditions: Caco-2
Method: (§1) The cells were cultured in a carbon dioxide incubator for 21-28 days before being used for transport experiments. During this period, the culture medium was changed every four to five days.
(§2) This project uses Hank's balanced salt buffer (pH 7.40±0.05) containing 10 mM HEPES as the transport buffer. The culture medium was removed from the culture plate and the cells were washed twice with preheated transport buffer (approximately 75 μL and 40 mL of transport buffer for each apical well and basolateral receiver plate respectively). The donor solution and receiver solution were added to the corresponding cell plate wells (75 and 250 μL for each apical and basolateral well respectively), and the bidirectional transport experiment was started (apical to basolateral (A-B) and basolateral to apical (B-A)). The test concentration of the test substance was […], and two replicate wells were made for each dosing concentration. The test concentration of Digoxin was […], with dosing bidirectionally; the test concentrations of nadolol and metoprolol were both […], and they were dosed in one direction (A-B direction), and two replicate wells were made for each of the three control compounds.
(§3) The initial donor solution is the TO sample. After adding the sample, it was mixed with the transport buffer and stop solution in a certain proportion.
(§4) All samples were vortexed, and then centrifuged at 3220×g for 20 min at 20° C. A proper volume of supernatant was transferred to a sample assay plate, and the sample was stored at 2-8° C. if it was not analyzed immediately after the plate was sealed, and LC MS/MS method was used for analysis.
(§5) The Lucifer Yellow Rejection Assay was used to test the integrity of the Caco-2 cell layer.
(§6) The following formulas were used to calculate the apparent permeability coefficient (Papp, cm/s), efflux ratio (ER), and solution recovery (%) (% Solution Recovery).
(§7) [formula] [formula] [formula] • VR is the volume of the receiver side solution (side A is 0.075 mL, side B is 0.25 mL); Area is the relative surface area of the cell monolayer (0.0804 cm^2); Time is the incubation time (7200 s); C0 is the initial concentration (nM) of the test substance at the donor side or the peak area ratio of the control compound; VD is the volume of the donor side (side A is 0.075 mL, side B is 0.25 mL); CD and CR are the final concentration (nM) of the test substance at the donor side and the receiver side respectively or the peak area ratio of the control compound; • Lucifer yellow transmittance rate (% Lucifer Yellow) is calculated using the following formula:
(§8) [formula] • RFUApical and RFUBasolateral are the relative fluorescence intensity of lucifer yellow at the apical and basolateral sides respectively. VApical and VBasolateral are the sample loading volumes at the apical and basolateral sides respectively (0.075 and 0.25 mL respectively).

[2] = as above; format: in vitro ADME; set-up: Papp A→B at 120 min / Papp B→A at 120 min / efflux ratio at 120 min / Papp at 120 min: dose or concentration left out as unconfirmed; conditions: human; for efflux ratio at 120 min / Papp at 120 min: Caco-2, pH 7.4; for Papp at 120 min: read-out: Classification Permeability; for Papp A→B at 120 min / Papp B→A at 120 min: pH 7.4, pH 7.40; for Papp A→B at 120 min: Caco-2, apical to basolateral; for Papp B→A at 120 min: Caco-2, basolateral to apical
Method: as §1, §2, §3, §4, §5, §6, §7, §8

[3] = test system: HCT116 cells; assay: Inhibitory activity on HCT116 cell proliferation (ATPlite); format: cell-based; conditions: Homo sapiens
Method: Cell culture medium: RPMI1640+10% FBS (GBICO)
Cell culture plate: 96-well plate (Shanghai Jingan Biotechnology Co., Ltd.)
Detection kit: ATPlite 1step Luminescence (PerkinElmer)
Detection instrument: BioTek multifunctional microplate reader
2. Test method: HCT116 cells in the logarithmic growth phase were seeded into a white-wall clear-bottom 96-well plate at a density of 720 cells per well, and cultured overnight in a 37° C., 5% CO2 incubator. […] After adding the drug, culturing was continued for 72 h in a 37° C., 5% CO2 incubator.
GraphPad Prism 7.0 was used to process the data, the cell inhibition rate curve was obtained and IC50 was calculated.

[4] = target: T1, PLK1 kinase (Homo sapiens, UniProt P53350); assay: Inhibitory activity on PLK1 kinase; format: biochemical; conditions: for Imax: maximum effect caused by the compound at the test concentration
T1 construct: purchased Carnabio (Carna Biosciences) 05-157
T1 sequence (P53350 whole entry): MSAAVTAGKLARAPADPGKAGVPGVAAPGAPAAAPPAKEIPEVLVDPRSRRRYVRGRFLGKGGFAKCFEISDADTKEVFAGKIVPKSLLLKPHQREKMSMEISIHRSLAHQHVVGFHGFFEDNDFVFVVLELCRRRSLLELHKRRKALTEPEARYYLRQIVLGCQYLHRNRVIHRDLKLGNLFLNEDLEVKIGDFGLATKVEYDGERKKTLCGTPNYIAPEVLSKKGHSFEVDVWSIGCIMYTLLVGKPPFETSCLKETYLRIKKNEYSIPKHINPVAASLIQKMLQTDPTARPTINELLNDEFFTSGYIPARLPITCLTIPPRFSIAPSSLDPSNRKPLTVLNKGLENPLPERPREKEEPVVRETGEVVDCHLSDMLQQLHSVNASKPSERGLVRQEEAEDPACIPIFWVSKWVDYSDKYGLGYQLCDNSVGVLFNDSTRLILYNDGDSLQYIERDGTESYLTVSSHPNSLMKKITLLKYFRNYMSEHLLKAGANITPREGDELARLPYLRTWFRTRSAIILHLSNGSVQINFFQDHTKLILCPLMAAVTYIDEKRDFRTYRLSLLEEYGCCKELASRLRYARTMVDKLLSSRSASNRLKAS
Method: Detection solution PerkinElmer #TRF0218-M
Detection instrument PerkinElemer EnVision
a. Using the Echo machine, the compounds to be tested were diluted by 1:3 on a 384-well plate, and the highest concentration was 1 μM, with a total of 10 concentration points, and each concentration was tested in duplicate wells.
b. 5 μL/well of PLK1 kinase and peptide substrate mixture were added to the assay plate (containing controls).
d. The reaction was initiated by adding 5 μL/well of ATP solution;
e. The assay plate was centrifuged at 1000 rpm for about 15 seconds, a film was used to seal the assay plate which was incubated at 23° C. for a period of time;
f. A detection solution was added to all wells of the assay plate;
g. The assay plate was centrifuged at 1000 rpm for approximately 15 seconds, a film was used to seal the assay plate which was incubated at 23° C. for 60 min.
h. The assay plate was read on EnVision. The test results were analyzed using XLFIT5 software.

[5] = Metabolic stability in rat liver microsomes; format: in vitro ADME; conditions: for CLint scaled at 1 µM / half-life at 1 µM / microsomal CLint at 1 µM: rat; for CLint scaled at 1 µM / half-life at 1 µM: pH 7.4; for microsomal CLint at 1 µM: pH 7.4, read-out: CLint(mic)
Method: (§9) a. Preparation of phosphate buffer: The phosphate buffer powder was dissolved in 100 mL of pure water to prepare a phosphate buffer solution with a pH of 7.4 and a concentration of 100 mM, which was stored in a 4° C. refrigerator for later use.
(§10) b. All samples as well as the reference testosterone were dissolved in DMSO to obtain a 10 mM stock solution. The 10 mM stock solution was diluted to 100 μM with acetonitrile to obtain a working solution for later use.
(§11) c. Preparation of liver microsome working solution: Each of the mouse, rat and human liver microsome stock solutions (at concentration of 20 mg/mL) was taken and diluted to 0.56 mg/mL with 100 mM phosphate buffer solution to obtain the liver microsome working solution.
(§12) d. Preparation of solution: An appropriate amount of MgCl2 was weighed and used to prepare a MgCl2 solution at a concentration of 60 mM using 100 mM phosphate buffer solution. An appropriate amount of NADPH was weighed and used to prepare a NADPH solution at a concentration of 20 mM using 100 mM phosphate buffer solution. An equal volume of 60 mM MgCl2 solution was added to prepare an NADPH working solution containing 10 mM NADPH and 30 mM MgCl2. An acetonitrile solution containing 20 ng/mL tolbutamide was prepared as the stop solution.
(§13) e. Liver microsome incubation: 2 μL of each compound and the positive drug testosterone working solution were added to 178 μL of liver microsome working solution (0.56 mg/mL), mixed gently, and pre-incubated in a vibrating constant temperature water bath pot at 37° C. for 10 min. After adding 20 μL of NADPH working solution, the mixture was placed in a vibrating constant temperature water bath pot at 37° C. and timed incubation was started for 5, 10, 20, 30 and 60 min.
(§14) f. Stopping reaction: After the corresponding time of incubation, 400 μL of stop solution was added to stop the reaction, and then the sample was immediately shaken for 1 min. The sample was centrifuged at 13500 rpm for 10 min at 10° C. After centrifugation, the supernatant was removed, diluted with water according to the needs of each compound, and analyzed by LC-MS. For the 0-minute sample, the stop solution was first added and mixed evenly with the liver microsomes, and then the NADPH working solution was added. For the negative control sample, 20 μL of 30 mM MgCl2 solution was added instead of the NADPH working solution.
(§15) T1/2 and CLint(mic) were calculated by the following formula.
(§16) [formula] [formula] • CLint(mic)=0.693/T1/2/liver microsomal protein concentration during incubation (mg/mL) • CLint(ver)=CLint(mic)*liver microsomal protein (mg)/liver weight (g)*liver weight to body weight ratio
(§17) Liver microsomal protein (mg)/liver weight (g): the value is 45 in both animal and human species.
(§18) Liver weight to body weight ratio: the parameters for mice, rats and humans are 88, 40 and 20 g/kg respectively.

[6] = Metabolic stability in mouse liver microsomes; format: in vitro ADME; conditions: for CLint scaled at 1 µM / half-life at 1 µM / microsomal CLint at 1 µM: mouse; for CLint scaled at 1 µM / half-life at 1 µM: pH 7.4; for microsomal CLint at 1 µM: pH 7.4, read-out: CLint(mic)
Method: as §9, §10, §11, §12, §13, §14, §15, §16, §17, §18

[7] = Metabolic stability in human liver microsomes; format: in vitro ADME; conditions: for CLint scaled at 1 µM / half-life at 1 µM / microsomal CLint at 1 µM: human; for CLint scaled at 1 µM / half-life at 1 µM: pH 7.4; for microsomal CLint at 1 µM: pH 7.4, read-out: CLint(mic)
Method: as §9, §10, §11, §12, §13, §14, §15, §16, §17, §18

[8] = HCT-116, HCT116 cells, 72 h, read-out: IC50
[9] = PLK1 kinase, highest concentration 1 μM, 10 points, read-out: IC50

Compound	Classification Efflux transporter substrate [1]	efflux ratio at 120 min [2]	Papp at 120 min [2]	Papp A→B at 120 min [2]	Papp B→A at 120 min [2]	IC50 [3, 8]	IC50 [4, 9]	Imax [4]	also measured
CN1CCN(c2ccc(OC(F)(F)F)c(Nc3ncc4ccc5c(C(N)=O)nn(C)c5c4n3)c2)CC1 [Compound 3]	Very unlikely or not (ERa < 2.00)	1.32	0.5 to 2.5 ×10⁻⁶ cm/s	0.644 ×10⁻⁶ cm/s	0.851 ×10⁻⁶ cm/s	–	–	99.57%	60 min remaining amount [5]: 2.74%; Clearance rate [5]: High; CLint scaled at 1 µM [5]: 505 mL/min/kg; half-life at 1 µM [5]: 4.94 min; microsomal CLint at 1 µM [5]: 281 µL/min/mg; 60 min remaining amount [6]: 4.32%; Clearance rate [6]: High; CLint scaled at 1 µM [6]: 409 mL/min/kg; half-life at 1 µM [6]: 13.4 min; microsomal CLint at 1 µM [6]: 103 µL/min/mg; 60 min remaining amount [7]: 7.83%; Clearance rate [7]: High; CLint scaled at 1 µM [7]: 78.7 mL/min/kg; half-life at 1 µM [7]: 15.9 min; microsomal CLint at 1 µM [7]: 87.4 µL/min/mg; IC50 ([3]; HCT-116, 72 h): 93 nM; IC50 [4]: 0.714 nM
CN1CCN(c2ccc(OC(F)(F)F)c(Nc3ncc4c(n3)-c3c(c(C(=O)NNC(N)=O)nn3C)CC4)c2)CC1 [Compound 12]	Likely (ERa ≥ 2.00)	> 56.7	< 0.5 ×10⁻⁶ cm/s	< 0.264 ×10⁻⁶ cm/s	15 ×10⁻⁶ cm/s	–	–	–	60 min remaining amount [5]: 7.43%; Clearance rate [5]: High; CLint scaled at 1 µM [5]: 153 mL/min/kg; half-life at 1 µM [5]: 16.3 min; microsomal CLint at 1 µM [5]: 85 µL/min/mg; 60 min remaining amount [6]: 26.9%; Clearance rate [6]: Medium; CLint scaled at 1 µM [6]: 163 mL/min/kg; half-life at 1 µM [6]: 33.6 min; microsomal CLint at 1 µM [6]: 41.2 µL/min/mg; 60 min remaining amount [7]: 70.8%; Clearance rate [7]: Medium; CLint scaled at 1 µM [7]: 10.4 mL/min/kg; half-life at 1 µM [7]: 119 min; microsomal CLint at 1 µM [7]: 11.6 µL/min/mg; IC50 ([3]; HCT-116, 72 h): 861 nM
CN1CCN(c2ccc(OC(F)(F)F)c(Nc3ncc4c(n3)-c3c(c(C(=O)NOCCO)nn3C)CC4)c2)CC1 [Compound 11]	Likely (ERa ≥ 2.00)	22.1	0.5 to 2.5 ×10⁻⁶ cm/s	1.13 ×10⁻⁶ cm/s	25 ×10⁻⁶ cm/s	205 nM	1.8 nM	99.65%	–
CN1C2CCC1CN(c1ccc(OC(F)(F)F)c(Nc3ncc4c(n3)-c3c(c(C(N)=O)nn3CCO)CC4)c1)C2 [Compound 23]	Likely (ERa ≥ 2.00)	> 82.6	< 0.5 ×10⁻⁶ cm/s	< 0.28 ×10⁻⁶ cm/s	23.1 ×10⁻⁶ cm/s	214 nM	3.66 nM	98.18%	–

Further lines, with some results ahead:

Classification Efflux transporter substrate [1]	efflux ratio at 120 min [2]	Papp at 120 min [2]	Papp A→B at 120 min [2]	Papp B→A at 120 min [2]	IC50 [3, 8]	IC50 [4, 9]	Imax [4]	Compound	also measured
Likely (ERa ≥ 2.00)	> 30.3	< 0.5 ×10⁻⁶ cm/s	< 0.48 ×10⁻⁶ cm/s	14.5 ×10⁻⁶ cm/s	3400 nM	14.7 nM	95.96%	CN1CCN(c2ccc(OC(F)(F)F)c(Nc3ncc4c(n3)-c3c(c(C(=O)NS(=O)(=O)C(F)(F)F)nn3CCO)CC4)c2)CC1 [Compound 8]	–
Likely (ERa ≥ 2.00)	> 25.4	< 0.5 ×10⁻⁶ cm/s	< 0.254 ×10⁻⁶ cm/s	6.43 ×10⁻⁶ cm/s	> 10000 nM	327 nM	72.68%	CN1CCN(c2ccc(OC(F)(F)F)c(Nc3ncc4c(n3)-c3c(c(C(=O)NS(=O)(=O)C5CC5)nn3CCO)CC4)c2)CC1 [Compound 9]	–
Likely (ERa ≥ 2.00)	> 51.7	< 0.5 ×10⁻⁶ cm/s	< 0.48 ×10⁻⁶ cm/s	24.8 ×10⁻⁶ cm/s	49 nM	1.16 nM	99.92%	CN1CCN(c2ccc(OC(F)(F)F)c(Nc3ncc4c(n3)-c3c(c(C(=O)NO)nn3CCO)CC4)c2)CC1 [Compound 10]	IC50 ([3]; HCT-116, HCT116 cells, 72 h, read-out: half inhibitory concentration): 49 nM
